The values that follow come from ChEMBL document CHEMBL5120769, “Sclerotiamides C-H, Notoamides from a Marine Gorgonian-Derived Fungus with Cytotoxic Activities” (J Nat Prod, 2022).

pIC50: −log10 of the molar value. Active and inactive are the calls of the source. The calls are words filed in the database; no cut-off is given here.

By pIC50 is commonly meant the negative decadic logarithm of the IC50, by convention in mol/L.

Experiment [1] deals with HeLa. Description: Cytotoxicity against human HeLa cells assessed as reduction in cell viability by MTT assay. It is filed as functional, cell-based. A general note: Tetrazolium assays rely on reduction of a dye to a coloured formazan, in cell work by metabolically active cells.
For another experiment, the system named is A549. Nature of the experiment: Cytotoxicity against human A549 cells assessed as reduction in cell viability by MTT assay. It is filed as functional, cell-based.
The test system of the next experiment is HepG2. Description: Cytotoxicity against human HepG2 cells assessed as reduction in cell viability by MTT assay. It is filed as functional, cell-based.
The next experiment deals with SMMC-7721. Description: Cytotoxicity against human SMMC-7721 cells assessed as reduction in cell viability by MTT assay. It is filed as functional, cell-based.
The test system of experiment [2] is HeLa. Nature of the experiment: Inhibition of colony formation in human HeLa cells assessed as reduction in cell colonies at 4 uM after 10 days by crystal violet staining based assay relative to control. It is filed as functional. The note with it: time 10.0 day, DDE = dose-dependent effect.
For experiment [3], the system named is HeLa. Nature of the experiment: Induction of apoptosis in human HeLa cells assessed as nuclear condensation at 1 to 10 uM after 24 hrs by Hoechst 33342 staining based fluorescence microscopic assay. It is filed as functional, cell-based. The settings on record: dose 1-10 µM.
For experiment [4], the system named is HeLa. Description: Induction of apoptosis in human HeLa cells assessed as increase in early apoptotic cells at 1 to 10 uM after 24 hrs by Annexin V staining based flow cytometric analysis. It is filed as functional, cell-based. The note with it: dose 1-10 µM. Background: Flow cytometry measures light scatter and fluorescence of single cells or particles in a stream.

The subject of experiment [5] is HeLa. Description: Induction of apoptosis in human HeLa cells assessed as increase in late apoptotic cells at 1 to 10 uM after 24 hrs by Annexin V staining based flow cytometric analysis. It is filed as functional, cell-based. The note with it: dose 1-10 µM.
The test system of experiment [6] is HeLa. Description: Induction of cell cycle arrest in human HeLa cells assessed as accumulation at G2 phase at 1 to 5 uM after 24 hrs by Propidium iodide staining based flow cytometric analysis (reference value: 23%). The settings on record: dose 1-5 µM. It is filed as functional.
The test system of experiment [7] is HeLa. Description: Induction of mitochondrial membrane potential loss in human HeLa cells at 1 to 10 uM after 24 hrs by JC1 staining based flow cytometric analysis. It is filed as functional, cell-based. The note with it: dose 1-10 µM.
Experiment [8] has as its system HeLa. Nature of the experiment: Induction of ROS generation in human HeLa cells at 1 to 10 uM after 24 hrs by DCFH-DA staining based fluorescence microscopic assay. It is filed as functional, cell-based. The settings on record: dose 1-10 µM.
The subject of experiment [9] is HeLa. Description: Induction of apoptosis in human HeLa cells assessed as decrease in Bcl-2 protein expression at 1 to 10 uM after 24 hrs by Western blot analysis. It is filed as functional, cell-based. The settings on record: dose 1-10 µM, DDE = dose-dependent effect. For orientation: In western blotting, separated proteins are transferred to a membrane and probed.

In experiment [10] the test system is HeLa. Description: Induction of apoptosis in human HeLa cells assessed as increase in Bax protein expression at 1 to 10 uM after 24 hrs by Western blot analysis. It is filed as functional, cell-based. The settings on record: dose 1-10 µM, DDE = dose-dependent effect.
Experiment [11] concerns HeLa. Description: Induction of apoptosis in human HeLa cells assessed as increase in caspase 3 protein expression at 1 to 10 uM after 24 hrs by Western blot analysis. It is filed as functional, cell-based. The settings on record: dose 1-10 µM, DDE = dose-dependent effect.
The subject of experiment [12] is HeLa. Nature of the experiment: Induction of apoptosis in human HeLa cells assessed as increase in cytochrome C protein expression at 1 to 10 uM after 24 hrs by Western blot analysis. It is filed as functional, cell-based. The note with it: dose 1-10 µM, DDE = dose-dependent effect.
Experiment [13] relates to HeLa. Nature of the experiment: Induction of apoptosis in human HeLa cells assessed as increase in p53 protein expression at 1 to 10 uM after 24 hrs by Western blot analysis. It is filed as functional, cell-based. The settings on record: dose 1-10 µM, DDE = dose-dependent effect.
Experiment [14] deals with HeLa. Description: Induction of apoptosis in human HeLa cells assessed as increase in cleaved PARP protein expression at 1 to 10 uM after 24 hrs by Western blot analysis. It is filed as functional, cell-based. The settings on record: dose 1-10 µM, DDE = dose-dependent effect.
Experiment [15] relates to HeLa. Nature of the experiment: Activation of MAPK signalling pathway in human HeLa cells assessed as increase in JNK phosphorylation level at 1 to 10 uM after 24 hrs by western blot analysis. It is filed as cell-based. The settings on record: filed as activator, dose 1-10 µM, DDE = dose-dependent effect.
Experiment [16] deals with HeLa. Description: Activation of MAPK signalling pathway in human HeLa cells assessed as increase in ERK phosphorylation level at 1 to 10 uM after 24 hrs by western blot analysis. The settings on record: filed as activator, dose 1-10 µM, DDE = dose-dependent effect. It is filed as cell-based.
Experiment [17] deals with HeLa. Description: Activation of MAPK signalling pathway in human HeLa cells assessed as increase in p38 phosphorylation level at 1 to 10 uM after 24 hrs by western blot analysis. It is filed as cell-based. The settings on record: filed as activator, dose 1-10 µM, DDE = dose-dependent effect.

As to `CC1(C)C=Cc2c(ccc3c2[N+]([O-])=C2C(C)(C)C4C[C@]56CCCN5C(=O)C4(NC6=O)[C@@H](O)[C@@]23O)O1` (some centres undefined), the negative logarithm of the IC50 (pIC50) in the experiment on HeLa [1], in the experiment on A549, in the experiment on HepG2 and in the experiment on SMMC-7721 was less than 5.00 in each case.
On to `Cc1c(O)c(C)c2oc(=O)c(C3=C4C(=[N+]([O-])c5c4ccc4c5C=CC(C)(C)O4)C(C)(C)[C@@H]4C[C@]56CCCN5C(=O)[C@]34NC6=O)c(O)c2c1C`, for which the pIC50 in the experiment with HeLa [1], in the experiment on A549, in the experiment with HepG2 and with SMMC-7721 was less than 5.00 each time.
`CC1(C)C=Cc2c(ccc3c2N2O[C@@H]4O[C@@]2(C3=O)C(C)(C)C2C[C@]35CCCN3C(=O)C24NC5=O)O1` (some centres undefined): the pIC50 in the experiment on HeLa [1], in the experiment on A549, in the experiment with HepG2 and in the experiment with SMMC-7721 was less than 5.00 throughout.
Turning to `Cc1c(O)c(C)c2oc(=O)c3c(c2c1C)O[C@@]12C(=[N+]([O-])c4c1ccc1c4C=CC(C)(C)O1)C(C)(C)[C@@H]1C[C@]45CCCN4C(=O)[C@]1(NC5=O)[C@H]32`, the pIC50 is 5.10 with HeLa [1], 5.11 with A549, 5.09 with HepG2 and 5.17 in the experiment with SMMC-7721.
As to `CC(=O)O[C@H]1C(=O)[C@@]2(C)[C@H]([C@H](OC(=O)c3ccccc3)[C@]3(O)C[C@H](OC(=O)[C@H](O)[C@@H](NC(=O)c4ccccc4)c4ccccc4)C(C)=C1C3(C)C)[C@]1(OC(C)=O)CO[C@@H]1C[C@@H]2O` [PACLITAXEL], the pIC50 in the experiment on HeLa [1] was 7.30; in the experiment with A549, 7.30; in the experiment on HepG2 it was 7.22; in the experiment with SMMC-7721, 7.15.
In the case of `CC1(C)C=Cc2c(ccc3c4c(n(O)c23)C(C)(C)[C@@H]2C[C@]35CCCN3C(=O)[C@]23[C@H]4NC(C)(C)N3C5=O)O1`, the negative logarithm of the IC50 (pIC50) in the experiment with HeLa [1] is 5.77; in the experiment with A549, 5.80; with HepG2, 5.74; in the experiment on SMMC-7721 it was 5.82. In the experiment with HeLa [2], the inhibition result is “Dde”. Also, the result with HeLa [3], in the experiment on HeLa [4], with HeLa [5], in the experiment with HeLa [7] and in the experiment with HeLa [8] was Active. The Activity in the experiment with HeLa [6] is 38%; with HeLa [9] it was “Dde”; with HeLa [10] it was “Dde”; in the experiment on HeLa [11], “Dde”; in the experiment on HeLa [12] it was “Dde”; in the experiment on HeLa [13], “Dde”. The Activity entry with HeLa [14], in the experiment with HeLa [15], in the experiment on HeLa [16] and in the experiment on HeLa [17] was “Dde” throughout.
As to `CC1(C)C=Cc2c(ccc3c4c([nH]c23)C(C)(C)[C@@H]2C[C@]35CCCN3C(=O)[C@]23[C@H]4NC(C)(C)N3C5=O)O1`, the pIC50 in the experiment on HeLa [1], with A549, in the experiment with HepG2 and in the experiment with SMMC-7721 was less than 5.00 throughout.
